Experimental data published in US5677285A, “Derivatives of neuraminic acid” (Fidia S.P.A., priority 1992, dated 1997).

Assays:
cerebellar granule cells = experiment: Protective effect on exogenous glutamate induced neurotoxicity, pretreatment, MTT test; type: cell-based, Sprague-Dawley rats; conditions: glutamate 100 μM, 2 hours pretreatment
Description: Primary cell cultures of cerebellar granule Cells were prepared from 6 day old Sprague-Dawley rats. Neurons were grown in 35 mm plates for 11-13 days and maintained in a humid environment (95% air and 5% CO2). Cultures (3×10^6 cells/plate) are mainly formed by granule cells (95%) with a small amount (5%) of glial cells (Gallo V. et al.: Selective release of glutamate from cerebellar granule cells differentiating in culture. Proc. Natl. Acad. Sci. USA 79, 7919-23, 1982). Glial proliferation was prevented by arabinofuranoside cytosine.
Derivative ND37 was solubilized at a concentration of 1×10^-2 M in dimethylsulfoxide (1% DMSO) and then diluted at various concentrations in Locke's solution (154 mM NaCl/1/5.6 mM KCl/3.6 mM NaHCO3 /2.3 mM CaCl2 /1 mM MgCl2 /5.6 mM glucose/5 mM HEPES, pH 7.4). The following concentrations were tested: 5×10^-6 M, 1×10^-5 M, and 2×10^-5 M.
The cell culture medium was aspirated from the plates (and correctly maintained). Plates were washed (3×2 ml) with Locke's solution, and solutions (1.5 ml) containing the compound to be tested (concentrations from 5×10^-6 M to 2×10^-5 M) were added and incubated for 2 hours in an incubator at 37° C. (5% CO2).
Treated cells were washed (3×2 ml) with Locke's solution+10% fetal calf serum, then washed (3×2 ml) with Locke's solution without Mg^++. 100 μM glutamate (1.5 ml) in Locke's solution (-Mg^++) or culture medium (controls) were added. Incubation with glutamate was performed for 15 minutes at room temperature (27° C.). Glutamate was removed, the plates were washed with Locke's solution (2×2 ml), and then incubated in presence of the starting medium (correctly maintained) for 24 hours at 37° C. in an incubator (5% C2 O). At the end of the incubation, cellular viability was assayed via quantification by the MTT colorimetric test (Mosmann T.: Rapid colorimetric assay for cellular growth and survival: application to proliferation and cytotoxicity assays. J. Immunol. Meth. 65, 55: 63, 1983 and modified according to Skaper S. D. et al.: Death of cultured hippocampal pyramidal neurons induced by pathological activation of N-methyl-D-aspartate receptors is reduced by monosialogangliosides. J. Pharm. Exp. Ter. 259,1 452-457, 1991). Data are expressed as % survival. The significance was calculated according to the Dunnett test.

neonatal rats = experiment: Cerebral damage induced by icv injection of N-methyl-D-aspartate, total brain weight; type: in vivo; conditions: for Total brain weight: NMDA 25 nmoles icv, 1 hour before and immediately after NMDA, day 12
Description: Experiments were performed on 7 day old neonatal rats weighing ca. 13 grams. […] The excitotoxin was solubilized in saline, and the pH was brought to 7.4 by adding 1N NaOH. The NMDA injection (25 nmoles/μl) was performed slowly (2 minutes) at the level of the right lateral ventricle utilizing a Hamilton syringe. Saline was administered to control animals (1 μl icv).
The compound was administered subcutaneously (sc) after suspension in 1% DMSO (experiment No. 1) or in 0.5% tragacanth (experiment No. 2). The compound was tested at the following doses: 1-3-5 mg/kg sc.
The treatment was conducted performing two administrations:
1 hour before NMDA injection;
immediately after NMDA injection.
The number of animals utilized in each experimental group (corresponding to the total number of animals, i.e., experiment 1+experiment 2, according to Table 3) is indicated in brackets.
Animals were sacrificed on the 12th day (i.e., 5 days after NMDA injection) for the evaluation of the in toto brain weight, defined in mg.
The statistical significance was evaluated using Dunnett's test.

[1] = test system: glutamate-activated cationic channels (cerebellar granule neurons); experiment: Single channel current registration of glutamate-activated cationic channels; type: cell-based, rats
Description: Primary cell cultures of cerebellar granule cells were prepared from 8 day old rats (Zivic Miller, Pittsburgh, Pa, USA).
Neurons were grown on 35 mm plates for 7-8 days and maintained in a humid environment (95% air and 5% CO2). Cultures (2.5×10^6 cells/plate) were mainly formed by granule cells (95%), with a small amount (5%) of glial cells (Gallo V. et al.: Selective release of glutamate from cerebellar granule cells differentiating in culture. Proc. Natl. Acad. Sci. USA 79, 7919-23, 1982). Glial proliferation was prevented by arabinofuranoside cytosine.
Derivative ND37 was solubilized at a concentration of 1×10^-2 M in dimethylsulfoxide (1% DMSO), and then diluted at various concentrations in Locke's solution (-Mg^++) (154 mM NaCl/5.6 mM KCl/3.6 mM NaHCO3 /2.3 mM CaCl2 /5.6 mM glucose/5 mM HEPES, pH 7.4). ND37 was analyzed at concentrations of 20 and 30 μM.
Experiments were performed at room temperature utilizing the following medium 145 mM NaCl, 1 mM CaCl2, 5 mM glucose, and 5 mM HEPES/NaOH at pH 7.4, and patch pipettes, close to the preparation, containing 145 mM CsCl2, 1 mM CaCl2, 11 mM ethyleneglycol (β-aminoethyl ether) bis N,N'-tetraacetic acid, 10 mM HEPES/Cs(OH)2 at pH 7.2. Plates were continually perfused at a flow rate of 1 ml/min.
b) The activation by glutamate of single channels was externally recorded on membrane portions prepared from cerebellar granule cells pretreated with ND37 for 30 minutes at 37° C. Micropipettes, filled (1 μM) with glutamate, were positioned close to the membrane portions and were also utilized in order to drip the neurotransmitter. Single channel currents were registered according to the method described by Bertolini and Vicini ("Voltage-dependent block by strychnine of N-methyl-D-aspartic acid-activated cationic channels in rat cortical neurons in culture", Mol. Pharmacol. 34, 98-103, 1988).

[2] = test system: C1300 mouse neuroblastoma cells, Neuro-2a clone; experiment: Neuritogenic activity (cells with neurites, optical microscopy); type: cell-based
Description: C1300 mouse neuroblastoma cells, Neuro-2a clone, (American Cell Type Culture Collection, Bethesda, Md.) were grown at a density of 10,000 cells/well in a culture medium containing Dulbecco's modified Eagle medium (DMEM, Flow), 10% fetal calf serum (FCS, batch IP 02, Seromed), penicillin (100 units per ml, Irvine), and L-glutamine (2 mM, Sigma). Cells were incubated at 37° C. for 24 hours, and medium was removed and substituted with 350 μl of fresh medium plus compounds to be tested.
Tested Compounds and Their Solubilization
Compounds ND35 and ND37 were solubilized at a concentration of 1×10^-2 M in dimethylsulfoxide (1% DMSO). For the different compounds, progressive dilutions in culture medium were performed (concentrations from 1×10^-5 to 1×10^-4 M).
Neuritogenic activity (cell number with neurites, optical microscopy)
Culture plates were incubated with compounds to be tested and analyzed using a phase contrast microscope (250×). Nine fields with prefixed coordinates were chosen and photographed. Then the total number of cells and those with neurites (length at least double the cell diameter) were counted in blind in each photograph. The percentage of cells with neurites was determined after counting of at least 100 cells (Facci L. et al.: Promotion of neuritogenesis in mouse neuroblastoma cells by exogenous ganglioside GM1. J. Neurochem. Raven Press, New York, 299-305,1984).

[3] = Glutamate (1 mM) + ND37 (20 uM), 30 minutes pretreatment, n = 10

Compound `CCCCCCCCCCCCCCCC(=O)NC1C(O)CC(OCC)(C(=O)N(C)C)OC1C(O)C(O)CO` (stereo not drawn) [ND37, β-2-O-ethylglycoside of the dimethylamide of N-palmitoylneuraminic acid] has a viability at 10 µM (cerebellar granule cells; Rattus norvegicus, ND37 1 × 10^-5 M, read-out: % survival) of about 63%, a viability at 20 µM (cerebellar granule cells; Rattus norvegicus, ND37 2 × 10^-5 M, read-out: % survival) of about 83% and a viability at 5 µM (cerebellar granule cells; Rattus norvegicus, ND37 5 × 10^-6 M, read-out: % survival) of 37 ± 5%. For the same compound, the MTT values (cerebellar granule cells; ND37 1 × 10^-5 M) was 0.123 ± 0.006, the MTT values (cerebellar granule cells; ND37 2 × 10^-5 M) was 0.326 ± 0.016 and the MTT values (cerebellar granule cells; ND37 5 × 10^-6 M) was 0.110 ± 0.015. The “efficacy against NMDA brain damage” value (neonatal rats; 1 mg/kg sc, p<0.01) was “significatively effective”, the “reduction of brain damage induced by the excitotoxin (lowering of total brain weight)” value (neonatal rats; 1-3-5 mg/kg sc) was “effective in reducing the brain damage” and the Total brain weight (neonatal rats; Experiment n.1 (vehicle = DMSO 1%), 1 mg/kg sc) was 960 mg. The Total brain weight (neonatal rats; Experiment n.1 (vehicle = DMSO 1%), 3 mg/kg sc) was 968 mg, the Total brain weight (neonatal rats; Experiment n.1 (vehicle = DMSO 1%), 5 mg/kg sc) was 959 mg and the Total brain weight (neonatal rats; Experiment n.2 (0.5% tragacanth), 1 mg/kg sc) was 1019 mg. It also gave a Total brain weight (neonatal rats; Experiment n.2 (0.5% tragacanth), 3 mg/kg sc) of 977 mg, a Total brain weight (neonatal rats; Experiment n.2 (0.5% tragacanth), 5 mg/kg sc) of 976 mg and a Channel conductivity [1, 3] of 50 ps. The Opening frequence [1, 3] was 4.1 ± 2.1 opening/sec, the “effect on channel conductivity and frequency of opening” value ([1]; pretreatment 30 minutes with 20 μM ND37) was “does not influence” and the “Cells with neurities (%)” value ([2]; 1 × 10^-4 M) was 48 ± 9%. For the same compound, the “Cells with neurities (%)” value ([2]; 1 × 10^-5 M) was 5 ± 3%, the neuritogenesis in vitro ([2]; 1×10^-5 to 1×10^-4 M) was “induce neuritogenesis” and the “Cells with neurities (%)” value ([2]; 2.5 × 10^-5 M) was 8 ± 4%. The “Cells with neurities (%)” value ([2]; 5 × 10^-5 M) was 27 ± 5%.
